What all share (type): functional
Assay [1] concerns Puccinia graminis f. sp. tritici. The experiment in a line: Antifungal activity against Puccinia graminis f. sp. tritici assessed as inhibition of uredospore germination after 48 hr by microscope-slide assay.
A further assay deals with Puccinia coronata. The experiment in a line: Antifungal activity against Puccinia coronata assessed as inhibition of uredospore germination after 48 hr by microscope-slide assay.
Assay [2] has as its system Colletotrichum gloeosporioides. The experiment in a line: Antifungal activity against Colletotrichum gloeosporioides f. sp. jussiaea assessed as conidial germination at 3 ppm after 48 hr by microscopic analysis.
The test system of assay [3] is Colletotrichum gloeosporioides. The experiment in a line: Antifungal activity against Colletotrichum gloeosporioides f. sp. jussiaea assessed as conidial germination at 10 ppm after 48 hr by microscopic analysis.
In assay [4] the test system is Colletotrichum gloeosporioides. Put plainly: Antifungal activity against Colletotrichum gloeosporioides f. sp. jussiaea assessed as conidial germination at 30 ppm after 48 hr by microscopic analysis.
For assay [5], the system named is Colletotrichum gloeosporioides. The experiment in a line: Antifungal activity against Colletotrichum gloeosporioides f. sp. jussiaea assessed as conidial germination at 100 ppm after 48 hr by microscopic analysis.

Converted amounts (≈) assume the structure as drawn.

Take `COC(=O)C(=Cc1ccc(O)c(OC)c1)C(=O)OC`: the ED50 in assay [1] was found to be 0.27 ng/mL (≈ 1.01 nM); in the assay on Puccinia coronata, 6.8 ng/mL (≈ 25.5 nM).

With `C/C=C1/C(=O)Nc2ccccc21`, the Activity in assay [2] was 40%; in assay [3], 0%; in assay [4], 0%; in assay [5], 0%.

On to `C/C=C1\C(=O)Nc2ccccc21`, for which the Activity came out at 68% in assay [2], 0% in assay [3], 0% in assay [4] and 0% in assay [5].

On to `CCCCC[C@H]1CCCCC[C@H]2CC(=O)[C@@H](CCC(=O)O1)O2.NN` [7-EPIGLOEOSPORONE], for which the Activity is 82% in assay [4] and 45% in assay [5].

Consider `CCCCC[C@@H]1CCCCC[C@@H]2CC(=O)[C@H](CCC(=O)O1)O2.NN` [13-EPIGLOEOSPORONE], for which the Activity in assay [4] worked out at 81%; in assay [5], 48%.

On to `CCCCC[C@H]1CCCCC[C@H]2CC(=O)[C@@H](CCC(=O)O1)O2` [(+)-GLOEOSPORONE], for which the Activity in assay [4] amounted to 81%; in assay [5], 44%.

Take `CCCCC[C@@H]1CCCCC[C@@H]2CC(=O)[C@H](CCC(=O)O1)O2` [(-)-GLOEOSPORONE]: the results for the Activity in assay [4] and in assay [5] were 82% and 49%, respectively.

Take `COC(=O)C(=Cc1ccc(OC)c(OC)c1)C(=O)OC` [METHYL 3,4-DIMETHOXYBENZALMALONATE]: the results for the ED50 (in assay [1]; in the assay with Puccinia coronata) were 4.16 ng/mL (≈ 14.8 nM) and 0.025 ng/mL (≈ 0.0892 nM), respectively.

In the case of `COC(=O)/C=C\c1ccc(OC)c(OC)c1` [METHYL CIS-3,4-DIMETHOXYCINNAMATE], the figures for the ED50 (in assay [1]; in the assay with Puccinia coronata) were 3.68 ng/mL (≈ 16.6 nM) and 0.013 ng/mL (≈ 0.0585 nM), respectively.

Consider `COC(=O)/C=C\c1ccc(O)c(OC)c1` [METHYL CIS-FERULATE], for which the ED50 is 0.18 ng/mL (≈ 0.864 nM) in assay [1] and 5.57 ng/mL (≈ 26.8 nM) in the assay with Puccinia coronata.
